What is called IC50 is the midpoint of a concentration-inhibition curve.

The test concerns the target T1, C5a anaphylatoxin chemotactic receptor 1 (Homo sapiens, UniProt P21730).
T1 sequence (P21730 whole entry): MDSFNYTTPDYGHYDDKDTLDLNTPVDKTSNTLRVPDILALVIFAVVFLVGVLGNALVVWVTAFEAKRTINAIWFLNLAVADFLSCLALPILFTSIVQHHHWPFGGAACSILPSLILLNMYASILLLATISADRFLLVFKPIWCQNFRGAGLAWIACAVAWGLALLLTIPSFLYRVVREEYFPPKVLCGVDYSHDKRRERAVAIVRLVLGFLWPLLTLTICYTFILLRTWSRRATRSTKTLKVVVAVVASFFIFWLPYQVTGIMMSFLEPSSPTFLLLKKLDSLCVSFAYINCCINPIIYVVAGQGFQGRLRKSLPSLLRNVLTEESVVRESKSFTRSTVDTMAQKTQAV
Briefly: FLIPR Assay: Compounds were tested for their ability to inhibit C5a-mediated calcium mobilization using a stable cell line over expressing the human C5aR & the Galpha 15 protein on the FLIPR (Fluorescent Imaging Plate Reader) Tetra system. Cells were maintained in culture media containing DMEM (Dulbecco's Modified Eagle Medium) with 4.5 g/L glucose, 10% fetal bovine serum, 100 U/mL, 1x non-essential amino acid, and 250 ug/mL G418 (Geneticin). Prior to testing of compounds, cells were plated at 10,000 cells/well in clear bottom 384-well black plate, and incubated overnight at 37C. with 5% CO2. On the day of experiment, culture media was removed, and replaced with assay buffer HBSS (Hanks' Balanced Salt Solution) with 20 mM HEPES (4-(2-hydroxyethyl)-1-piperazineethanesulfonic acid) and 0.1% BSA (bovine serum albumin) BSA containing calcium 5 dye (Molecular Devices) and 2.5 mM probenecid. After 1 hour incubation at 37C., 5% CO2 for 60 min, cells were pre-incubated with compounds for 30 minutes. It counts as functional. (In general: Calcium flux is commonly read through the fluorescence of an indicator in the cells.)

Consider `CO[C@H]1CCN(c2nc(-c3c(Cl)cnc4[nH]ccc34)nc3c2CN(c2cc(C4CC4)ccc2C)CC3)CC1(C)C`, for which the IC50 came to 47 nM.

Consider `CO[C@@H]1CCN(c2nc(-c3c(C)ccc4[nH]nc(C)c34)nc3c2CN(c2c(Cl)c(C(C)C)nn2C)CC3)[C@H](C)C1`, for which the IC50 is 2 nM.
